Results on 16 molecules are retold here after publication PMC12388801, “Identification of Bioactive Peptides from Caenorhabditis elegans Secretions That Promote Indole-3-Acetic Acid Production in Arthrobacter pascens ZZ21” (Microorganisms, 2025).

Like-named read-outs stand apart in the source and are kept apart here. Peptide text beside a SMILES is read from it. Bounds are passed on as bounds.

The series can be described thus: Solubility assessment of synthetic candidate peptides. On the procedure:
Candidate peptide sequences identified by LC-MS/MS were synthesized using GenScript Biotech (Nanjing, China). Peptide solubility was tested in various solvents to determine optimal conditions for functional assays. Initial screening was performed in 30 mL of inorganic salt medium with 200 mg/L L-tryptophan. A. pascens ZZ21 was inoculated at 1% (v/v), and peptides were tested at 1 ppm and 0.1 ppm. The peptides were dissolved according to their solubility profiles, with corresponding solvent controls: CK-A (1 ppm blank) and CK-B (0.1 ppm blank). Cultures were incubated at 30 °C, 250 rpm for 48 h, after which IAA levels in the supernatants were measured.
This analysis was conducted by Biotech Pack Scientific Co., Ltd. (Beijing, China).

Setting [1] is: synthetic peptide, N/A = lower than 0.1 mg/mL.
Where [2] appears, read: synthetic peptide, ultrapure water, N/A = lower than 0.1 mg/mL.

Take `CC(C)C[C@H](NC(=O)[C@H](C)NC(=O)[C@H](CC(N)=O)NC(=O)CN)C(=O)N[C@@H](C)C(=O)N[C@H](C(=O)N[C@@H](CCCNC(=N)N)C(=O)O)[C@@H](C)O` [Peptide P1] (H-GNALATR-OH): the “Solubilty in 0.1 M PBS” value under setting [1] is on record as “N/A (N/A indicates solubility lower than 0.1 mg/mL)”.
Same read-out and setting: to `CC(C)[C@H](NC(=O)[C@H](C)NC(=O)[C@@H](NC(=O)[C@H](C)NC(=O)[C@H](CO)NC(=O)CN)C(C)C)C(=O)NCC(=O)N[C@@H](CCCNC(=N)N)C(=O)O` [Peptide P5] (H-GSAVAVGR-OH) belongs “N/A (N/A indicates solubility lower than 0.1 mg/mL)”.
Turning to `CC(C)[C@H](NC(=O)[C@H](CCC(=O)O)NC(=O)[C@H](C)NC(=O)[C@H](Cc1ccccc1)NC(=O)[C@H](CCC(=O)O)NC(=O)[C@H](C)N)C(=O)N[C@@H](CO)C(=O)N[C@@H](CCCCN)C(=O)O` [Peptide P6] (H-AEFAEVSK-OH), the “Solubilty in ultrapure water” value is at most 5 mg/mL.
For `CC(C)C[C@H](NC(=O)CNC(=O)[C@H](CO)NC(=O)[C@@H](N)CC(=O)O)C(=O)N[C@H](C(=O)N[C@@H](CC(C)C)C(=O)N[C@@H](CCCCN)C(=O)O)C(C)C` [Peptide P11] (H-DSGLVLK-OH), under setting [1], the “Solubilty in 0.1 M PBS” value is “N/A (N/A indicates solubility lower than 0.1 mg/mL)” and the “Solubilty in DMSO” value is recorded as “N/A (N/A indicates solubility lower than 0.1 mg/mL)”.
For the molecule `CC(C)C[C@H](NC(=O)CNC(=O)[C@H](Cc1ccccc1)NC(=O)[C@H](C)NC(=O)[C@H](CC(C)C)NC(=O)[C@H](C)NC(=O)[C@H](CC(C)C)NC(=O)[C@@H](N)[C@@H](C)O)C(=O)N[C@H](C(=O)N[C@@H](C)C(=O)O)[C@@H](C)O` [Peptide P12] (H-TLALAFGLTA-OH), under setting [2], the “Solubilty in ultrapure water” value is “N/A (N/A indicates solubility lower than 0.1 mg/mL)”.
On to `CC(C)C[C@H](NC(=O)[C@H](CCC(N)=O)NC(=O)[C@H](CC(C)C)NC(=O)[C@@H](NC(=O)[C@@H](N)CC(C)C)C(C)C)C(=O)N[C@@H](CC(=O)O)C(=O)N[C@@H](CC(N)=O)C(=O)N[C@@H](C)C(=O)N[C@@H](CCCCN)C(=O)O` [Peptide P13] (H-LVLQLDNAK-OH), for which the “Solubilty in 0.1 M PBS” value under setting [1] is on record as “N/A (N/A indicates solubility lower than 0.1 mg/mL)”. Further, under setting [2], the “Solubilty in ultrapure water” value is reported as “N/A (N/A indicates solubility lower than 0.1 mg/mL)”.
`CC(C)C[C@H](NC(=O)[C@H](CCC(=O)O)NC(=O)[C@H](Cc1ccc(O)cc1)NC(=O)[C@H](Cc1ccc(O)cc1)NC(=O)[C@@H](N)CC(C)C)C(=O)N[C@@H](C)C(=O)N[C@@H](CCCNC(=N)N)C(=O)O` [Peptide P14] (H-LYYELAR-OH): the “Solubilty in 0.1 M PBS” value under setting [1] is “N/A (N/A indicates solubility lower than 0.1 mg/mL)”. Also, the “Solubilty in ultrapure water” value under setting [2] was “N/A (N/A indicates solubility lower than 0.1 mg/mL)”.
As to `CC(C)C[C@H](NC(=O)[C@H](CO)NC(=O)[C@H](CC(C)C)NC(=O)[C@H](CC(=O)O)NC(=O)[C@H](CC(C)C)NC(=O)[C@@H](N)Cc1ccccc1)C(=O)N[C@@H](CCCCN)C(=O)O` [Peptide P18] (H-FLDLSLK-OH), the “Solubilty in 0.1 M PBS” value under setting [1] is recorded as “N/A (N/A indicates solubility lower than 0.1 mg/mL)”. Besides, the “Solubilty in ultrapure water” value under setting [2] was “N/A (N/A indicates solubility lower than 0.1 mg/mL)”.
Regarding `CC(C)C[C@H](NC(=O)[C@H](CCC(N)=O)NC(=O)[C@@H]1CCCN1)C(=O)N[C@@H](CCC(=O)O)C(=O)N[C@H](C(=O)N[C@@H](CC(C)C)C(=O)N[C@H](C(=O)N1CCC[C@H]1C(=O)N[C@@H](CC(N)=O)C(=O)O)C(C)C)C(C)C` [Peptide P20] (H-PQLEVLVPN-OH), under setting [1], the “Solubilty in 0.1 M PBS” value was “N/A (N/A indicates solubility lower than 0.1 mg/mL)”. For the same molecule, under setting [2], the “Solubilty in ultrapure water” value is “N/A (N/A indicates solubility lower than 0.1 mg/mL)”.
For `CC(C)C[C@H](NC(=O)[C@H](CCC(N)=O)NC(=O)[C@@H]1CCCN1)C(=O)N[C@@H](CCC(=O)O)C(=O)N[C@@H](CC(C)C)C(=O)N[C@H](C(=O)N[C@H](C(=O)N1CCC[C@H]1C(=O)N[C@@H](CC(N)=O)C(=O)O)C(C)C)C(C)C` [Peptide P22] (H-PQLELVVPN-OH), the “Solubilty in 0.1 M PBS” value under setting [1] is given as “N/A (N/A indicates solubility lower than 0.1 mg/mL)”. For the same molecule, under setting [2], the “Solubilty in ultrapure water” value is listed as “N/A (N/A indicates solubility lower than 0.1 mg/mL)”.
For `CC(C)C[C@H](NC(=O)CNC(=O)[C@H](CC(C)C)NC(=O)[C@H](C)NC(=O)[C@H](C)NC(=O)[C@H](CO)NC(=O)[C@H](C)NC(=O)[C@H](C)NC(=O)[C@H](CCC(N)=O)NC(=O)[C@H](CC(C)C)NC(=O)[C@@H](N)C(C)C)C(=O)O` [Peptide P24] (H-VLQAASAALGL-OH), the “Solubilty in 0.1 M PBS” value under setting [1] is “N/A (N/A indicates solubility lower than 0.1 mg/mL)”. Besides, under setting [2], the “Solubilty in ultrapure water” value is reported as “N/A (N/A indicates solubility lower than 0.1 mg/mL)”.
For `CC(C)C[C@H](NC(=O)[C@H](Cc1ccccc1)NC(=O)[C@H](CC(=O)O)NC(=O)[C@@H](NC(=O)[C@H](CC(C)C)NC(=O)[C@@H](N)[C@@H](C)O)C(C)C)C(=O)N[C@@H](CCCNC(=N)N)C(=O)O` [Peptide P25] (H-TLVDFLR-OH), the “Solubilty in 0.1 M PBS” value under setting [1] is given as “N/A (N/A indicates solubility lower than 0.1 mg/mL)”. The “Solubilty in ultrapure water” value under setting [2] is given as “N/A (N/A indicates solubility lower than 0.1 mg/mL)”.
On to `CC(C)C[C@H](NC(=O)[C@H](CC(=O)O)NC(=O)[C@@H](NC(=O)[C@@H](NC(=O)[C@@H](N)CC(C)C)[C@@H](C)O)C(C)C)C(=O)N[C@@H](Cc1ccccc1)C(=O)N[C@@H](CCCNC(=N)N)C(=O)O` [Peptide P27] (H-LTVDLFR-OH), for which the “Solubilty in 0.1 M PBS” value under setting [1] is reported as “N/A (N/A indicates solubility lower than 0.1 mg/mL)”. In addition, under setting [2], the “Solubilty in ultrapure water” value is on record as “N/A (N/A indicates solubility lower than 0.1 mg/mL)”.
For the molecule `CC(C)[C@H](N)C(=O)N[C@H](C(=O)N[C@@H](CC(=O)O)C(=O)N[C@H](C(=O)N[C@@H](CO)C(=O)N[C@@H](CCC(=O)O)C(=O)N[C@H](C(=O)N[C@@H](Cc1ccccc1)C(=O)N[C@@H](Cc1ccccc1)C(=O)N[C@@H](CCCCN)C(=O)O)C(C)C)C(C)C)[C@@H](C)O` [Peptide P28] (H-VTDVSEVFFK-OH), the “Solubilty in 0.1 M PBS” value under setting [1] was “N/A (N/A indicates solubility lower than 0.1 mg/mL)”. In addition, the “Solubilty in ultrapure water” value under setting [2] is “N/A (N/A indicates solubility lower than 0.1 mg/mL)”.
As to `CC(C)C[C@H](NC(=O)[C@H](CC(C)C)NC(=O)[C@H](CC(N)=O)NC(=O)[C@@H](NC(=O)[C@H](CO)NC(=O)[C@@H](NC(=O)[C@@H]1CCCN1C(=O)[C@@H](N)CCC(=O)O)[C@@H](C)O)C(C)C)C(=O)N[C@@H](C)C(=O)N[C@@H](CCC(=O)O)C(=O)O` [Peptide P29] (H-EPTSVNLLAE-OH), the “Solubilty in 0.1 M PBS” value under setting [1] is on record as “N/A (N/A indicates solubility lower than 0.1 mg/mL)”. The “Solubilty in ultrapure water” value under setting [2] is recorded as “N/A (N/A indicates solubility lower than 0.1 mg/mL)”.
Consider `CC(C)C[C@H](NC(=O)[C@H](C)NC(=O)[C@@H](NC(=O)CNC(=O)[C@@H](NC(=O)[C@H](CO)NC(=O)[C@@H](NC(=O)[C@@H]1CCCN1C(=O)[C@@H](N)CCC(=O)O)[C@@H](C)O)C(C)C)C(C)C)C(=O)N[C@@H](C)C(=O)N[C@@H](CCC(=O)O)C(=O)O` [Peptide P30] (H-EPTSVGVALAE-OH), for which the “Solubilty in DMSO” value under setting [1] is reported as “N/A (N/A indicates solubility lower than 0.1 mg/mL)”. For the same molecule, under setting [2], the “Solubilty in ultrapure water” value was “N/A (N/A indicates solubility lower than 0.1 mg/mL)”.
